`O=C(O)c1ccc(OCC(O)CO)cc1O` (centres undefined) yielded a melting point of 151 to 153 °C.

Turning to `CC(C)(C)OC(=O)NOCC(=O)NNC(=O)c1cc(S(=O)(=O)O)cc(OCc2ccccc2)c1OCc1ccccc1`, the melting point lay within 103 to 105 °C. To `O=C(c1ccccc1)c1cc([N+](=O)[O-])ccc1NC1CCCC1` belongs 95 °C; to `O=c1[nH]c(=O)c2ccc(C(c3ccccc3)n3ccnc3)cc2[nH]1` (centres undefined), 287 °C. For `O=[N+]([O-])c1cc(C(F)(F)F)cc2nc(N3CCN(c4ncccc4C(F)(F)F)CC3)[nH]c12` the value was 192 °C; for `O=C1CCCN1c1cccc(CO)c1`, 120 to 121 °C. To `COC(=O)c1cscc1NC(=O)COc1ccc(Cl)c(Cl)c1` belongs 179 to 182 °C; to `Cc1c[nH]c(=O)nc1OCc1ccccc1`, 181 to 182 °C; to `Nc1ccccc1Oc1cc(-c2ccc(C(F)(F)F)cc2)ncn1`, 188 °C. Compound `C=C(C)C(=O)NCCNC(=O)CCl` came in with a melting point of 126 to 128 °C. For `ClC1=Nc2ccccc2Sc2c1csc2Cl` the value was 163 to 165 °C; for `CCOCc1nc2c(N)nc3ccccc3c2n1CC1(N(C(N)=O)C(C)C)CCCCC1`, 135 to 160 °C. For `O=C(CCCC1CCN(Cc2cccc(O)c2)CC1)c1ccc2c(c1)CCN(Cc1ccccc1)CC2` the value was 88 to 94 °C. For `Cc1nccn1-c1nc(-c2ccc(Cl)cc2)c(CCCN2C(=O)COC2=O)o1`, the melting point is 152 to 153 °C. To `CCOC(=O)c1cc2cc(C)c(C(F)(F)F)cc2[nH]1` belongs 176 to 178 °C. To `COC(=O)[C@H](CC(C)C)NC(=O)c1ccco1` belongs 88 to 90 °C; to `Brc1cn(C(c2ccccc2)(c2ccccc2)c2ccccc2)nc1-c1ccccc1`, 181 to 183 °C. To `O=S(=O)(c1ccc(Cl)cc1)N1CCCC1c1ccc(Cl)cc1` (racemic) belongs 159 °C; to `CCCCCCCCCCc1cc(CCCCCCCCCC)cc(N(CC(=O)O)CC(=O)O)c1`, 78 to 81 °C; to `C=CCN1CCC[C@H]1C(N)=O`, 79 to 81 °C. `COC(=O)[C@H](Cc1cc(Cl)c(OCCc2coc(-c3cccc(OCc4ccccc4)c3)n2)c(Cl)c1)NC(=O)C(F)(F)F` returned a melting point of 111 to 113 °C. To `Cn1nnnc1SCCCCCCCCSc1nnnn1C` belongs 52 to 54 °C; to `COC(=O)c1cc(C(=O)CNC(C)(C)Cc2ccc3c(c2)OCO3)ccc1OCc1ccccc1`, 134 to 141 °C; to `C/C(=C\c1cccc2c1NCCNC2=O)CCCC(=O)O`, 257 to 259 °C. For `CCCCc1nc2c(N)nc3ccccc3c2n1OC(C)C` the value was 118 to 119 °C; for `CCCCCCCCc1cc2cc(O)ccc2c(Oc2ccc(/C=C/C(=O)O)cc2)c1-c1ccccc1`, 163 to 164 °C; for `CC(C)OC(=O)C1=C2SCC(=CC(=O)N(C)C)N2CC1C` (centres undefined), 126 to 128 °C.

Regarding `CC1=NCC(=S)Nc2ccc(Cl)cc21`, the melting point lay within 201 to 203 °C. For `CCC(=O)N(C(=O)CC)c1cc2c(cc1C)N(C(=O)CC)c1ccc(N(C)C)cc1N2C(=O)CC` the value was 198 to 199 °C; for `Nc1nc(-c2nn(Cc3ccccc3F)c3ncccc23)nc(N)c1Cc1ccccc1`, 193 °C. For `Cc1ccccc1C1SC2(CCN(C)CC2)c2ccccc21` (centres undefined) the value was 132 to 134 °C; for `COc1cc(OC)c2c(=O)[nH]c(-c3cc(C)c(OCCN4CC(NC(C)=O)C4)c(C)c3)nc2c1`, 112 to 114 °C; for `O=C1C(CCC(O)c2ccc(F)cc2)C(c2ccc(-c3ccc(O)cc3)cc2)N1c1ccc(F)cc1` (centres undefined), 110 °C. To `CCOC(=O)C1(F)C(=O)NC(=O)NC1ON=C1CCC1` (centres undefined) belongs 188 to 189 °C. Turning to `Oc1ncc(-c2cccc(F)c2)cn1`, the melting point lay in the range of 259 to 261 °C. To `CCOC(=O)C=CC=CCCC(C)C1CCC2C3CCC4CC(OC(C)=O)CCC4(C)C3CC(OC(C)=O)C12C` (centres undefined) belongs 129 to 131 °C. To `COc1cccc(P(=O)(c2ccc(C)cc2)c2ccc(C)cc2)c1I` belongs 146 to 148 °C; to `CCn1c(=O)ccn(-c2ccc([N+](=O)[O-])cc2)c1=O`, 182 °C; to `O=c1[nH]c2ncc(-c3ccc(O)cc3)nc2n1CCc1ccccc1`, 283 to 284 °C. In turn, `COc1nc(-c2ccc(F)cc2)nc(-c2ccccn2)n1` displayed a melting point above 270 °C.

As for `Cc1cc(C)nc(S(=O)(=O)c2ccccc2)c1`, the melting point fell in the range of 106 to 107 °C. For the compound `CC(CN1C(=O)C2(COc3cc4c(cc32)CCO4)c2ccccc21)OCc1ccccc1` (centres undefined), the melting point is 45 to 47 °C. For `COC(=O)C1Cc2c([nH]c3ccccc23)CN1C(=S)SC` (centres undefined) the value was 132 to 134 °C; for `CCc1cc(OC)cc(=O)o1`, 54 to 55 °C; for `O=C1N(Cc2ccc(Cl)s2)c2cccc(Br)c2C12COc1cc3c(cc12)OCO3` (centres undefined), 85 to 87 °C. To `O=C1Nc2ccccc2SC1CCCCO` (centres undefined) belongs 101 to 102 °C; to `CN1CCN(c2cccc(Nc3ncc4ccc(-c5cn[nH]c5)n4n3)c2)CC1`, 195 °C. To `CC(C)C1(C)CC(O)C2(C)CCC3c4ccc(O)cc4CCC3C12` (centres undefined) belongs 201 to 205 °C; to `CCOC(=O)c1cc(C)c2c(c1)CC(=O)N2`, 238 to 241 °C.

In the case of `CC(=O)N1CCc2cc(C[C@@H](C)NCCOc3ccccc3OCC(F)(F)F)cc(C(N)=O)c21`, the melting point lay within 144 to 146 °C. For `CNC1Cc2ccccc2C1Nc1ccc(Cc2ccccc2)cc1` (centres undefined) the value was 137 to 138 °C. To `CC(=O)OC1CC2CCC3C(CCC4(C)C(C(C)=O)CCC34)C2(C)CC1Br` (centres undefined) belongs 142 to 146 °C; to `CCCCC/C=C\C/C=C\CCCCCCCC(=O)Nc1cccc(N(CC(=O)O)CC(=O)O)c1`, 135 to 140 °C; to `CS(=O)(=O)c1ccc(-c2ccc(C(F)F)n2-c2ccc(F)cc2)cc1`, 111 to 112 °C. To `O=C1CCC2=C(CCc3c(Cl)cccc32)N1` belongs 252 to 253 °C. Take `CS(=O)(=O)Nc1cc(C(O)CNC2CCN(c3ccc(CC4SC(=O)N(CC(=O)O)C4=O)cc3)CC2)ccc1O` (centres undefined): the melting point lay within 158 to 160 °C. For `COc1ncccc1Nc1c(NC(NC(=O)c2cccc(C)c2)C(C)(C)Cc2ccccc2)c(=O)c1=O` (centres undefined) the value was 233 to 235 °C. To `O=C1CCC(N2Cc3c(OCc4ccc(CN5CCC(O)CC5)cc4)cccc3C2=O)C(=O)N1` (centres undefined) belongs 204 to 206 °C; to `Cc1cc(C)nc(-n2cnc(N)n2)n1`, 235 to 238 °C; to `CC(C)(O)Cn1c(CO)nc2c(N)nc3cccnc3c21`, 235 to 237 °C. To `CCOC(=O)CNS(=O)(=O)c1ccc(N2CCC(NC[C@H](O)c3ccc(O)c(NS(C)(=O)=O)c3)CC2)cc1` belongs 105 to 107 °C. For `CCN1CCN(C(=O)c2cc(N)cc(C(F)(F)F)c2)CC1`, the melting point came out at 104 °C. For `CC(C)(C)OC(=O)c1nc(-c2ccc(Cl)cc2Cl)n(-c2ccc(Cl)cc2)c1C#N` the value was 210 to 212 °C; for `CCCc1c(C(=O)C(C)C)c2ccc(C(N)=O)cc2n1Cc1ccccc1OC`, 174 to 175 °C; for `CC(C)(C)C1CSC2(CCC(C)(C(Cl)Cl)CC2)SC1` (centres undefined), 163 °C.

In turn, `CC1(C)Oc2ccc(OC(F)(F)F)cc2[C@@H](N2Cc3ccccc3C2=O)[C@@H]1O` (relative stereo) gave a melting point of 212 to 213 °C. To `O=C1c2ccccc2C(=O)N1CCCCCCCCCCOc1ccc(-n2ccnc2)cc1` belongs 90 to 91 °C; to `Cc1ccc(-c2ccc3c(c2)C(=O)CC3)cc1`, 121 to 122 °C.

In turn, `CC12C=CC(C)(CC(=O)C1)O2` came in with a melting point of 62 to 63 °C. To `NC(C=C(CP(=O)(O)O)c1ccccc1)C(=O)O` (centres undefined) belongs 230 to 233 °C. For `COC1=C(OC)C(=O)c2c(N)cccc2C1=O` the value was 116 to 117 °C; for `CC1(C)OC(c2ccc(S(C)(=O)=O)c(F)c2)=C(c2cccc(Cl)c2)C1=S`, 105 to 106 °C; for `N#CC(N)=C(N)Sc1ccc(Cl)cc1`, 107 to 108 °C. For `CCCCCC(C#Cc1ccc(C(=O)O)cc1)c1ccc2c(c1)C(C)(C)CCC2(C)C` (racemic) the value was 115 to 116 °C; for `CCN(C)C(=O)NC(=O)Nc1ccccc1`, 157 to 159 °C; for `CCONS(=O)(=O)c1ccc(C)cc1`, 94 to 95 °C. For the compound `CN1C(=O)N(CC(=O)O)C(=O)C1(C)C`, the melting point lay in the range of 130 to 132 °C.

In turn, `Cc1ccc(NS(=O)(=O)Cc2ccccc2)c(OCc2ccccc2)c1CC(=O)O` yielded a melting point of 132 to 134 °C. The compound `CCCOc1cc(C(=O)O)cc([N+](=O)[O-])c1-c1ccccc1` displayed a melting point of 142 to 144 °C. Consider `Cc1[nH]c(=O)c2c(ccc3nc(Nc4c(Cl)cccc4Cl)[nH]c32)c1C`, for which the melting point was above 300 °C. To `CC[C@@]12C[C@H](O)[C@](O)(c3c(F)cccc3F)C[C@H]1CCc1cc(O)ccc12` belongs 198 to 200 °C; to `COc1cc2cc(C(=O)N3CC(CCl)c4c3cc(NCCNC(=O)OC(C)(C)C)c3ccccc43)[nH]c2c(OC)c1OC` (centres undefined), 110 to 115 °C; to `O=C(Nc1ccc(C(F)(F)F)cc1)Nc1nc(OCC(F)(F)F)cc(C(F)(F)F)n1`, 197 to 199 °C. To `CN(CCNC(=O)NCCCOc1cccc(CN2CCCCC2)c1)CCC(c1ccc(Cl)cc1)c1ccccn1` (centres undefined) belongs 99 to 105 °C; to `Cc1cc(N2CCN(C)CC2)n2nc(OCCO)c(S(=O)(=O)c3ccccc3)c2n1`, 178 °C. For `C#CCn1c(-c2ccc(OC)cc2)c([N+](=O)[O-])c2ccc(OC)cc2c1=O` the value was 162 to 164 °C; for `C=CCOc1ccc2cc(Br)ccc2c1`, 35 to 37 °C; for `N#Cc1cccc(C2=Nc3ccc(C#Cc4ccc(OC(F)(F)F)cc4)cc3NC(=O)C2)c1`, 239 to 241 °C. In turn, `CC(C)c1cc(C(=O)CON2C(=O)c3ccccc3C2=O)cc(C(C)C)c1O` displayed a melting point of 136 to 139 °C.

In general, melting point refers to the temperature of the solid-liquid transition.

The values above are taken from a melting point compilation (Tetko et al.; mined from patent text by program, amines drawn as free bases though some values may be those of a salt).
